IC50 data for 1 compound are collected here from BindingDB's records for patent US11130748 (Mission Therapeutics, 2021).

The target in this test is T1, Ubiquitin carboxyl-terminal hydrolase 30 (Homo sapiens, UniProt Q70CQ3).
T1 sequence (Q70CQ3 whole entry): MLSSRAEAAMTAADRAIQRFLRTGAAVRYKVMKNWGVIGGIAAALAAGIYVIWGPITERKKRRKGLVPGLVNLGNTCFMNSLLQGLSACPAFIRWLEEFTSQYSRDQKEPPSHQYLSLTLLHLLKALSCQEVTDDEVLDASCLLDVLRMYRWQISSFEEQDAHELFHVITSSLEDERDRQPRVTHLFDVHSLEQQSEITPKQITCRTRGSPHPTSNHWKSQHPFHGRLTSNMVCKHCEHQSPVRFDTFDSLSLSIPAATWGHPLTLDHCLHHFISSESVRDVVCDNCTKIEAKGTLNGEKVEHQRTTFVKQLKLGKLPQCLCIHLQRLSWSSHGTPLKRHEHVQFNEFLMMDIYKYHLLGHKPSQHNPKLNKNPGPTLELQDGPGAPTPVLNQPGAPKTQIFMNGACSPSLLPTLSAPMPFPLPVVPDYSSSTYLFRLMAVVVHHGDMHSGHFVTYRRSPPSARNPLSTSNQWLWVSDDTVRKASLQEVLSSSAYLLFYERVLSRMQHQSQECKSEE
Kind of test: Biochemical Assay. Here is the method:
Dilution plates were prepared at 21 times the final concentration (2100 μM for a final concentration of 100 μM) in 50% DMSO in a 96-well polypropylene V-bottom plate (Greiner #651201). A typical 8-point dilution series to be 100, 30, 10, 3, 1, 0.3, 0.1, 0.03 μM final. Reactions were performed in duplicate in black 384 well plates (small volume, Greiner 784076) in a final reaction volume of 21 μl. Either 1 μl of 50% DMSO or diluted compound was added to the plate. USP30 was diluted in reaction buffer (40 mM Tris, pH 7.5, 0.005% Tween 20, 0.5 mg/ml BSA, 5 mM beta-mercaptoethanol) to the equivalent of 0.05 μl/well and 10 μl of diluted USP30 was added to the compound. Enzyme and compound were incubated for 30 min at room temp. Reactions were initiated by the addition of 50 nM of TAMRA labelled peptide linked to ubiquitin via an iso-peptide bond as fluorescence polarisation substrate. Reactions were read immediately after addition of substrate and following a 2 hr incubation at room temperature. Readings were performed on a Pherastar Plus (BMG Labtech). λ Excitation 540 nm; λ Emission 590 nm.

The IC50 is the concentration needed to halve the response being measured. Low values mean greater potency in that assay, high ones weaker potency in that assay.

On to `N#CN1CC[C@H](CNC(=O)c2ncc(-c3ccccc3)s2)C1` [US11130748, Example 61], for which the IC50 entry was “in the range around 550 nM”.
